In brackets after ≈: the same amount, converted by molar mass.
What was measured:
[1] = system: Streptococcus pneumoniae 1/1, Trimethoprim- and Penicillin-resistant, Serotype 6; clinical isolate; assay: MIC against Streptococcus pneumoniae 1/1; format: cell-based; conditions: read-out: MIC Spn1/1
Protocol: (§1) The following Table contains inhibitory concentrations determined in the above test for representative members of the class of compound defined by formula I. The following microorganisms were tested: […]
Col. 1: MIC Spn1/1; μg/ml (Streptococcus pneumoniae 1/1, Trimethoprim- and Penicillin-resistant, Serotype 6; clinical isolate, stored at −80° C.)
Lit.: H. Locher et al., Can. J. Infect. Dis.6: Suppl. C, p 469C.

[2] = system: Staphylococcus aureus 101, MRSA and Trimethoprim-resistant; clinical isolate; assay: MIC against Staphylococcus aureus 101; format: cell-based; conditions: read-out: MIC Sa101
Protocol: as §1
Col. 2: MIC Sa101; μg/ml (Staphylococcus aureus 101, MRSA^*)— and Trimethoprim-resistant; clinical isolate, stored at −80° C.)
^*) MRSA=Methicillin Resistant Staphylococcus Aureus

[3] = molecular target: T1, purified DHFR of strain Sp1/1 of Streptococcus pneumoniae (Streptococcus pneumoniae, UniProt Q54801); conditions: read-out: DHFR Spn1/1 (IC50); purified DHFR of S. pneumoniae strain Spn1/1; IC50 determined graphically
T1 sequence (Q54801 1-168): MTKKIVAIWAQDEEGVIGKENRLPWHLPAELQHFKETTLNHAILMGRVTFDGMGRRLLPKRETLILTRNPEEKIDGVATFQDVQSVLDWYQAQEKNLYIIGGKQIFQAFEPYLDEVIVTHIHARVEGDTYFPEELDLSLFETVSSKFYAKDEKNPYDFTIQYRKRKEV
Source text: 3: DHFR Spn1/1; μM—the IC50-values in μM against the purified DHFR of the above strain Sp1/1 of Streptococcus pneumoniae.

[4] = molecular target: purified DHFR of the strain 157/4696 (highly trimethoprim-resistant; clinical isolate) of Staphylococcus aureus (Staphylococcus aureus, UniProt P13955); assay: biochemical
Source text: The inhibition of the enzyme was taken as a measurement for the antibacterial activity.

Row | SMILES | melting point | MIC [1] | MIC [2] | IC50 [3] | IC50 [4]
1 | COc1cc(Cc2cnc(N)nc2N)cc(OC)c1OC [Trimethoprim, reference compound] |  | > 32 µg/mL | 32 µg/mL (≈ 110 µM) |  | 
2 | CCOc1cc(Cc2cnc(N)nc2N)cc2c1OC(C)(C)C=C2C [Example 8, 5-(8-Ethoxy-2,2,4-trimethyl-2H-chromen-6-ylmethyl)-pyrimidine-2,4-diamine] | 216 to 218 °C | 2 µg/mL (≈ 5.87 µM) | 4 µg/mL (≈ 11.7 µM) | 15 nM | 1300 nM
3 | COc1cc(Cc2cnc(N)nc2N)cc2c1OC(C)(C)C=C2c1ccc(F)cc1 [Example 32, 5-[4-(4-Fluoro-phenyl)-8-methoxy-2,2-dimethyl-2H-chromen-6-ylmethyl]-pyrimidine-2,4-diamine] |  | > 8 µg/mL | > 8 µg/mL | 190 nM | 80 nM
4 | COc1cc(Cc2cnc(N)nc2N)cc2c1OC1(C=C2Br)CCOCC1 [Example 21, 5-[(4-Bromo-2′,3′,5′,6′-tetrahydro-8-methoxyspiro[2H-1-benzopyran-2,4′-[4H]pyran]-6-yl)-methyl]-2,4-pyrimidinediamine] |  | 4 µg/mL (≈ 9.23 µM) | 1 µg/mL (≈ 2.31 µM) | 52 nM | 150 nM
5 | CCOc1cc(Cc2cnc(N)nc2N)cc2c1OC(C)(C)C=C2C(C)(C)O [Example 43, 2-[6-(2,4-Diamino-pyrimidin-5-ylmethyl)-8-ethoxy-2,2-dimethyl-2H-chromen-4-yl]-propan-2-ol] | 209 to 210 °C |  |  |  | 
6 | CCOc1cc(Cc2cnc(N)nc2N)cc2c1OC(C)(C)C=C2CC [Example 9, 5-(8-Ethoxy-4-ethyl-2,2-dimethyl-2H-chromen-6-ylmethyl)-pyrimidine-2,4-diamine] | 222 to 225 °C (dec.) | 1 µg/mL (≈ 2.82 µM) | 4 µg/mL (≈ 11.3 µM) | 12 nM | 670 nM
7 | CCOc1cc(Cc2cnc(N)nc2N)cc2c1OC1(C=C2Br)CCC1 [Example 30, 5-[(4-Bromo-8-ethoxyspiro[2H-1-benzopyran-2,1′-cyclobutan]-6-yl)methyl]-2,4-pyrimidinediamine] | 213 to 214 °C | 4 µg/mL (≈ 9.59 µM) | 2 µg/mL (≈ 4.79 µM) | 8.9 nM | 210 nM
8 | CCOc1cc(Cc2cnc(N)nc2N)cc2c1OC(C)(C)C=C2Br [Example 7, 5-(4-Bromo-8-ethoxy-2,2-dimethyl-2H-chromen-6-ylmethyl)-pyrimidine-2,4-diamine] |  | 0.5 µg/mL (≈ 1.23 µM) | 0.5 µg/mL (≈ 1.23 µM) | 0.33 nM | 110 nM
9 | CCOc1cc(Cc2cnc(N)nc2N)cc2c1OC(C)(C)C=C2[Si](C)(C)C | 189 to 190 °C |  |  |  | 
10 | COc1cc(Cc2cnc(N)nc2N)cc2c1OC(C)(C)C=C2Br [Example 2, 5-(4-Bromo-8-methoxy-2,2-dimethyl-2H-chromen-6-ylmethyl) -pyrimidine-2,4-diamine] |  | 4 µg/mL (≈ 10.2 µM) | 1 µg/mL (≈ 2.56 µM) | 52 nM | 150 nM
11 | CCOc1cc(Cc2cnc(N)nc2N)cc2c1OC(C)(C)C=C2c1cccs1 [Example 36, 5-(8-Ethoxy-2,2-dimethyl-4-thiophen-2-yl-2H-chromen-6-ylmethyl)-pyrimidine-2,4-diamine] | 213 to 214 °C (dec.) |  |  |  | 
12 | COc1cc(Cc2cnc(N)nc2N)cc2c1OC(C)(C)C=C2Cl [Example 6, 5-(4-Chloro-8-methoxy-2,2-dimethyl-2H-chromen-6-ylmethyl)-pyrimidine-2,4-diamine] | 221 to 222 °C | 4 µg/mL (≈ 11.5 µM) | 1 µg/mL (≈ 2.88 µM) | 110 nM | 380 nM
13 | CCCC1=CC(C)(C)Oc2c(OCC)cc(Cc3cnc(N)nc3N)cc21 [Example 10, 5-(8-Ethoxy-2,2-dimethyl-4-propyl-2H-chromen-6-ylmethyl) -pyrimidine-2,4-diamine] | 208 to 209 °C | 2 µg/mL (≈ 5.43 µM) | 4 µg/mL (≈ 10.9 µM) | 15 nM | 1100 nM
14 | COCC#CC1=CC(C)(C)Oc2c(OC)cc(Cc3cnc(N)nc3N)cc21 [Example 16, 5-[8-Methoxy-4-(3-methoxy-prop-1-ynyl)-2,2-dimethyl-2H-chromen-6-ylmethyl]-pyrimidine-2,4-diamine] | 236 to 237 °C | > 8 µg/mL | 4 µg/mL (≈ 10.5 µM) | 680 nM | 220 nM
15 | CCOc1cc(Cc2cnc(N)nc2N)cc(OCC)c1-n1cccc1 [Epiroprim, reference compound] |  | 4 µg/mL (≈ 11.3 µM) | 16 µg/mL (≈ 45.3 µM) |  | 2000 nM
16 | CCOc1cc(Cc2cnc(N)nc2N)cc2c1OC(C)(C)C=C2c1cccc(F)c1 [Example 34, 5-[8-Ethoxy-4-(3-fluoro-phenyl)-2,2-dimethyl-2H-chromen-6-ylmethyl]-pyrimidine-2,4-diamine] | 185 to 186 °C |  |  |  | 
17 | COc1cc(Cc2cnc(N)nc2N)cc2c1OC(C)(C)C=C2SC [Example 4, 5-(8-Methoxy-2,2-dimethyl-4-methylsulfanyl-2H-chromen-6-ylmethyl)-pyrimidine-2,4-diamine] |  | 4 µg/mL (≈ 11.2 µM) | 2 µg/mL (≈ 5.58 µM) | 78 nM | 88 nM

Second part, led by results:

Row | melting point | SMILES | MIC [1] | MIC [2] | IC50 [3] | IC50 [4]
18 | 267 °C (dec.) | COc1cc(Cc2cnc(N)nc2N)cc2c1OC(C)(C)C=C2c1cccc(F)c1 [Example 33, 5-[4-(3-Fluoro-phenyl)-8-methoxy-2,2-dimethyl-2H-chromen-6-ylmethyl]-pyrimidine-2,4-diamine] |  |  |  | 
19 | 181 to 182 °C | COc1cc(Cc2cnc(N)nc2N)cc2c1OC1(C=C2)CCCCC1 [Example 31, 5-[(8-Methoxyspiro[2H-1-benzopyran-2,1′-cyclohexan]-6-yl)methyl]-2,4-pyrimidine-diamine] |  |  |  | 
20 | 188 to 189 °C | C=C(C)C1=CC(C)(C)Oc2c(OCC)cc(Cc3cnc(N)nc3N)cc21 [Example 45, 5-(8-Ethoxy-4-isopropenyl-2,2-dimethyl-2H-chromen-6-ylmethyl)-pyrimidine-2,4-diamine] |  |  |  | 
21 | 256 to 257 °C | CCC1=CC(C)(C)Oc2c(OC)cc(Cc3cnc(N)nc3N)cc21 [Example 3, 5-(4-Ethyl-8-methoxy-2,2-dimethyl-2H-chromen-6-ylmethyl)-pyrimidine-2,4-diamine] |  |  |  | 
22 | 239 to 240 °C | COc1cc(Cc2cnc(N)nc2N)cc2c1OC(C)(C)C=C2CO [Example 5, [6-(2,4-Diamino-pyrimidin-5-ylmethyl)-8-methoxy-2,2-dimethyl-2H-chromen-4-yl]-methanol] |  |  |  | 
23 | 197 to 199 °C | CCOc1cc(Cc2cnc(N)nc2N)cc2c1OC(C)(C)C=C2Cl [Example 59, 5-(4-Chloro-8-ethoxy-2,2-dimethyl-2H-chromen-6-ylmethyl)-pyrimidine-2,4-diamine] |  |  |  | 
24 | > 260 °C | COc1cc(Cc2cnc(N)nc2N)cc2c1OC(C)(C)C=C2c1ccccc1 [Example 42, 5-(8-Methoxy-2,2-dimethyl-4-phenyl-2H-chromen-6-ylmethyl) -pyrimidine-2,4-diamine] |  |  |  | 

From US6818649B2, “Chromenylmethyl pyrimidinediamines as antibacterial agents” (Basilea Pharmaceutica AG, priority 2000, dated 2004)
